Test results: PMC8347512, “Synthesis and Biological Assessment of 4,1-Benzothiazepines with Neuroprotective Activity on the Ca^2+ Overload for the Treatment of Neurodegenerative Diseases and Stroke” (Molecules, 2021)
Read-outs that look alike come from different tables or passages of the source.

Experiments:
NMDA receptors = experiment: Blockade of NMDA-evoked cytosolic Ca2+ elevation (Fluo-4/AM) in rat cortical neurons; format: cell-based
Description: (§1) The neuroblastoma SH-SY5Y cell line was obtained from the American Type Culture Collection (ATCC-CRL-2266), maintained and cultured in a 1:1 mixture of MEM and F12 media with 10% of fetal bovine serum (FBS), according to procedures previously described. For fluorescence-based [Ca^2+]c measurements, SH-SY5Y cells were seeded in clear-bottomed, 96-well black plates at a density of 40,000 cells/well. For viability assays, SH-SY5Y cells were seeded in 48-well plates at a density of 70,000 cells/well following the procedure recently reported. Rat cortical embryonic neurons were prepared from 19-day-old embryos directly seeded in the plate well treated with poly-D-lysine in neurobasal medium (Gibco 21103, Madrid, Spain) supplemented with 1% of L-glutamine (Sigma, G6392), 0.5% of penicillin/streptomycin and 0.1% of gentamincine. In fluorescence-based [Ca^2+]c measurement, neurons were seed at clear-bottomed, 96-well black plates at a density of 30,000 cells/well. For viability assays, the rat cortical neurons were also seeded in 48-well plates at a density of 40,000 cells/well. All the biological assays were conducted under sterile conditions.
To assess the blocking effect of compounds on the VGCC, we used SH-SY5Y cells charged with the Ca^2+-sensitive fluorescent dye Fluo-4/AM at 10 μM in Krebs-HEPES buffer, following a protocol recently described. Compounds were incubated at the desired concentrations (1, 3, 10, and 30 μM). The Ca^2+ entry was favored by addition of K^+ 70 mM to the extracellular medium. […] Rat cortical neurons were charged with Fluo-4/AM at 3 μM in Krebs-HEPES buffer and compounds incubated at same concentrations than before. To stimulate Ca^2+ entry through the NMDA-sensitive glutamate receptors, NMDA was applied at 10 μM. In both cases, fluorescence oscillations as result of the [Ca^2+]c increases were real-time monitored in a multi-well fluorescence plate reader (FluoStar Optima, BMG, Germany), with excitation and emission wavelengths of 485 and 520 nm, respectively. Data were calculated as fluorescence increase (ΔF), according to the formula: ΔF=Fx−Fo /Fmax−Fmin where Fx is the maximum fluorescence obtained after Ca^2+ entry stimulation, F0 is the averaged fluorescence before, Fmax is the maximum fluorescence of the well obtained by treating cells with 5% Triton X-100, and the Fmin is the minimum fluorescence of well obtained by adding MnCl2 1 M to the previously Triton-lysed cells. The ΔF data were normalized respect to the control (ΔFc).

VGCC = experiment: Blockade of 70 mM K+-evoked cytosolic Ca2+ elevation (Fluo-4/AM) in SH-SY5Y cells; format: cell-based; conditions: for Decrease of K+-evoked Ca2+ signaling compared with nifedipine: compounds 10 μM, nifedipine 10 μM
Description: as §1
To assess the blocking effect of compounds on the VGCC, we used SH-SY5Y cells charged with the Ca^2+-sensitive fluorescent dye Fluo-4/AM at 10 μM in Krebs-HEPES buffer, following a protocol recently described. Compounds were incubated at the desired concentrations (1, 3, 10, and 30 μM). The Ca^2+ entry was favored by addition of K^+ 70 mM to the extracellular medium. To evaluate the blocking effect of compounds on NMDA receptors, we have followed a protocol recently reported by our research group. Rat cortical neurons were charged with Fluo-4/AM at 3 μM in Krebs-HEPES buffer and compounds incubated at same concentrations than before. To stimulate Ca^2+ entry through the NMDA-sensitive glutamate receptors, NMDA was applied at 10 μM. In both cases, fluorescence oscillations as result of the [Ca^2+]c increases were real-time monitored in a multi-well fluorescence plate reader (FluoStar Optima, BMG, Germany), with excitation and emission wavelengths of 485 and 520 nm, respectively. Data were calculated as fluorescence increase (ΔF), according to the formula: ΔF=Fx−Fo /Fmax−Fmin where Fx is the maximum fluorescence obtained after Ca^2+ entry stimulation, F0 is the averaged fluorescence before, Fmax is the maximum fluorescence of the well obtained by treating cells with 5% Triton X-100, and the Fmin is the minimum fluorescence of well obtained by adding MnCl2 1 M to the previously Triton-lysed cells. The ΔF data were normalized respect to the control (ΔFc). Data are presented as percentage of blockade (100% ΔF) at the concentration of 10 μM, or as IC50, i.e., the concentration of compound capable of halving the ΔFc (%ΔF = 50).

[1] = Blood-brain barrier permeation assay (PAMPA), porcine brain lipid; format: in vitro ADME; conditions: read-out: Pe, in vitro permeability (PAMPA-BBB)
Description: The parallel artificial membrane permeation assay (PAMPA) was used to predict the capacity of compounds to cross the blood–brain barrier (BBB) by passive diffusion, in a similar manner as previously described. Compounds were dissolved in 10 mM phosphate-buffered saline (PBS) buffer (pH 7.4) to the concentration of 100 µM. The filter membrane of the donor 96-well plate (Multiscreen IP sterile clear plate PDVF membrane, pore size […]) was impregnated with 4 µL of porcine brain lipid (PBL) (Avanti Polar Lipids, Inc., Alabaster, AL, USA) in dodecane (20 mg/mL), and after 5 min, 180 µL of each compound solution was added. The acceptor 96-well plate (Multiscreen, Millipore Corp. Burlington, MA, USA) was filled with 180 µL of PBS and 1% of DMSO. Finally, the donor filter plate was carefully put on the acceptor plate to form a “sandwich”, which was left undisturbed for 4 h at rt. After incubation, an UV plate reader determined the concentration of compounds in both acceptor and donor wells (150 µL/well) as the maximum absorption wavelength of each compound. Concentration of the compounds in the donor and acceptor well, and equilibrium concentration were calculated from the standard curve and expressed as the permeability (Pe), according to the following formula: logPe=logC×−ln1−drugacceptor/drugequilibrium whereC=Vdonor×Vaceptor/Vdonor+Vaceptor×Area×Time)
Results are expressed as mean ± SEM of three different experiments in duplicate.

rat cortical neurons [2] = experiment: Per se toxicity, MTT reduction, rat cortical neurons; format: cell-based; conditions: 48 h
Description: as §1
The per se toxicity of the new synthetized compounds was assessed in both cell cultures by the method of MTT reduction. After 24 h of seeding, SH-SY5Y cells were preincubated with compounds at different concentrations (1, 3, 10, and 30 μM) for 24 h. Afterwards, MEM/F12 medium was replaced by one fresh with 1% FBS with the compounds at the same concentration. The viability of cultures was measured 20 h later, following a procedure recently described. In the case of rat cortical neurons, 7 days after seeding, compounds were added to the wells to reach a final concentration of 1, 3, 10, and 30 μM. Forty-eight hours later, neuron viability was measure by the same procedure as the one described for SH-SY5Y cells.

SH-SY5Y cells = experiment: Neuroprotection against rotenone/oligomycin A (R/O), MTT, SH-SY5Y cells; format: cell-based; conditions: R/O 30/10 μM, compounds 10 μM
Description: as §1
(§2) The effect of compounds on the SH-SY5Y cells and rat cortical neurons viability compromised of different toxics was also evaluated by method of MTT reduction. Twenty-four hours after seeding, SH-SY5Y cells were preincubated with compounds at the concentration of 10 μM for 24 h. Afterwards, MEM/F12 medium was replaced by one fresh with 1% FBS, compounds at the same concentration, and rotenone/oligomycin A administered to media at the concentration of 30/10 μM, respectively. The cultures’ viability was measured 20 h later, following the MTT procedure recently described. As reference neuroprotective compound, melatonin 10 nM was selected. In the case of the rat cortical neurons, 7 days after seeding in 48-well plates, neurons were preincubated adding the compounds at a final concentration of 10 μM for 24 h. Then, toxic stimuli of 50 µM of glutamate was added to the wells. After 20 h, cell viability was measured by the MTT procedure. Here, the reference protective compound used was memantine (30 nM).

rat cortical neurons [3] = experiment: Neuroprotection against glutamate 50 μM, MTT, rat cortical neurons; format: cell-based; conditions: compounds 10 μM
Description: as §1, §2

[4] = compounds 1 to 30 μM, Fluo-4/AM, read-out: IC50, concentration halving the 70 mM K+-evoked Ca2+ elevation
[5] = rat cortical embryonic neurons, NMDA 10 μM, compounds 1 to 30 μM; read-out: IC50, NMDA-evoked [Ca2+]c elevation
[6] = porcine brain lipid, pH 7.4, 4 h, rt, Pe ≥ 4 indicates passive BBB crossing

Compound | IC50 (VGCC; [4]) [µM] | IC50 (NMDA receptors; [5]) [µM] | melting point [°C] | Effect on cell viability of rat cortical neurons at 30 μM (rat cortical neurons [2]) | further results
CC12CC3CC(C)(C1)CC(N)(C3)C2 [Memantine, memantine, reference compound] | – | – | – | – | IC50 (NMDA receptors; read-out: IC50, NMDA-evoked [Ca2+]c elevation; rat cortical embryonic neurons, NMDA 10 μM, compounds 1 to 30 μM): 17 µM
COC(=O)C1=C(C)NC(C)=C(C(=O)OC)C1c1ccccc1[N+](=O)[O-] [Nifedipine, nifedipine, reference compound] | 15 | – | – | – | –
O=C1CSC(c2ccc([N+](=O)[O-])cc2)c2cc(Cl)ccc2N1 (stereo not shown) [compound 14, 7-Chloro-5-(4′-nitrophenyl)-3,5-dihydro-4,1-benzothiazepin-2-(1H)-one] | 29.9 | > 30 | 289 to 291 | – | Papp at 4 h, 100 µM [1, 6]: < 4 ×10⁻⁶ cm/s
O=C1CSC(c2ccncc2)c2cc(Cl)ccc2N1 (stereo not shown) [compound 15, 7-Chloro-5-(pyridin-4-yl)-3,5-dihydro-4,1-benzothiazepin-2-(1H)-one] | 20 | > 30 | 224 to 226 | – | –
O=C1CSC(c2cccnc2)c2cc(Cl)ccc2N1 (stereo not shown) [compound 16, 7-Chloro-5-(pyridin-3-yl)-3,5-dihydro-4,1-benzothiazepin-2-(1H)-one] | > 30 | > 30 | 224 to 226 | – | –
O=C1CSC(c2ccccn2)c2cc(Cl)ccc2N1 (stereo not shown) [compound 17, 7-Chloro-5-(pyridin-2-yl)-3,5-dihydro-4,1-benzothiazepin-2-(1H)-one] | 24.7 | > 30 | 215 to 217 | – | –
O=C1CSC(c2ccncc2Cl)c2cc(Cl)ccc2N1 (stereo not shown) [compound 18, 7-Chloro-5-(3′-chloropyridin-4-yl)-3,5-dihydro-4,1-benzothiazepin-2-(1H)-one] | 11.5 | 28.3 | 226 to 229 | slightly reduced cell viability in a significant manner | Decrease of K+-evoked Ca2+ signaling compared with nifedipine (VGCC): in a similar manner or even better than the reference compound nifedipine; Papp at 4 h, 100 µM ([1]; pH 7.4, threshold value of 40 nm/s): > 4 ×10⁻⁶ cm/s
CN(C)c1ccc2c(c1)C(c1ccccc1Cl)SCC(=O)N2 (stereo not shown) [compound 26, 5-(2′-Chlorophenyl)-7-dimethylamino-3,5-dihydro-4,1-benzothiazepin-2-(1H)-one] | 25.4 | > 30 | 178 to 181 | slightly reduced cell viability in a significant manner | Protection against R/O-induced oxidative stress (in words) (SH-SY5Y cells): clear trend to protect against oxidative stress; Papp at 4 h, 100 µM [1, 6]: < 4 ×10⁻⁶ cm/s
COc1ccccc1C1SCC(=O)Nc2ccc(N(C)C)cc21 (stereo not shown) [compound 27, 7-Dimethylamino-5-(2′-methoxyphenyl)-3,5-dihydro-4,1-benzothiazepin-2-(1H)-one] | – | 18.5 | 233 to 236 | slightly reduced cell viability in a significant manner | IC50 (VGCC; read-out: IC50, concentration halving the 70 mM K+-evoked Ca2+ elevation, compounds 1 to 30 μM, Fluo-4/AM): 29.3 µM; Mitigation of the NMDA-elicited Ca2+ increase compared with memantine (NMDA receptors; rat cortical neurons, compounds 10 μM, memantine 10 μM): noticeable mitigation of the NMDA-elicited Ca^2+ increase, even higher than that exerted by the reference compound memantine; Protection against R/O-induced oxidative stress (in words) (SH-SY5Y cells): clear trend to protect against oxidative stress
CN(C)c1ccc2c(c1)C(c1ccc(F)cc1)SCC(=O)N2 (stereo not shown) [compound 28, 7-Dimethylamino-5-(4′-fluorophenyl)-3,5-dihydro-4,1-benzothiazepin-2-(1H)-one] | 19.5 | > 30 | 219 to 222 | slightly reduced cell viability in a significant manner | Protection against R/O-induced oxidative stress (in words) (SH-SY5Y cells): clear trend to protect against oxidative stress
O=C1CSC(c2ccc(F)cc2)c2ccccc2N1 (stereo not shown) [compound 32, 5-(4′-Fluorophenyl)-3,5-dihydro-4,1-benzothiazepin-2-(1H)-one] | 9.2 | > 30 | 251 to 254 | – | Decrease of K+-evoked Ca2+ signaling compared with nifedipine (VGCC): in a similar manner or even better than the reference compound nifedipine; Protection against glutamate-elicited neurotoxicity (in words) (rat cortical neurons [3]): statistically significant dissipation of the glutamate-elicited neurotoxicity; Papp at 4 h, 100 µM [1, 6]: < 4 ×10⁻⁶ cm/s
COc1ccccc1C1SCC(=O)Nc2ccccc21 (stereo not shown) [compound 33, 5-(2′-Methoxyphenyl)-3,5-dihydro-4,1-benzothiazepin-2-(1H)-one] | > 30 | > 30 | 216 to 218 | slightly reduced cell viability in a significant manner | Protection against glutamate-elicited neurotoxicity (in words) (rat cortical neurons [3]): statistically significant dissipation of the glutamate-elicited neurotoxicity
